For experiment [1], the target named is T1, human recombinant active MMP-2 (Homo sapiens, UniProt P08253).
T1 sequence (P08253 110-660): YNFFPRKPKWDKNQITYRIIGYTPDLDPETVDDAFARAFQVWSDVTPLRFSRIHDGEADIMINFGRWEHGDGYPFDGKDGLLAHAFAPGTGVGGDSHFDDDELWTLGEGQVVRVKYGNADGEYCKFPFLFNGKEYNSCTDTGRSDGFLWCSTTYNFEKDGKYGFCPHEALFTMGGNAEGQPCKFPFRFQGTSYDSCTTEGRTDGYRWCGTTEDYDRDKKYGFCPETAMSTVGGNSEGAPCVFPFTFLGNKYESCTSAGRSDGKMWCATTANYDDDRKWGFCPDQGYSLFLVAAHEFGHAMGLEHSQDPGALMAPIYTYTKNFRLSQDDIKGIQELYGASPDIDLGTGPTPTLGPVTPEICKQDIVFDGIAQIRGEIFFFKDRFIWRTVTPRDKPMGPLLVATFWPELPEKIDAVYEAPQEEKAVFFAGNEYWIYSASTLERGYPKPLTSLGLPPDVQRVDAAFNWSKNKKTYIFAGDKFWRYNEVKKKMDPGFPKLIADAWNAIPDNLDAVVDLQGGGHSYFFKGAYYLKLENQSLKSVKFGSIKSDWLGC
The experiment can be described thus: Cleavage of peptides by purified active MMP-2. The format is biochemical. To be noted: 10 µM GM6001; 9 nM active MMP-2; 37°C, 2 h; FAM fluorescence.

The test system of a further experiment is MMP-2 from HUVECs. The experiment can be described thus: Peptide cleavage by MMP-2 in PMA-treated HUVECs culture. To be noted: 25 µM GM6001, 30 min pre-treatment; 10 µM MMP-RGD; 24 h; p = 0.041. Type of experiment: cell-based, human.

Structures are written as SMILES.

As for `CNC(=O)[C@H](Cc1c[nH]c2ccccc12)NC(=O)[C@@H](CC(=O)NO)CC(C)C` [GM6001], the “inhibition of cleavage of MMP-RGD and MMP-control by purified MMP-2” value in experiment [1] was “inhibited”. Further, the “inhibition of cleavage of MMP-RGD by PMA-treated HUVECs” value in the experiment with MMP-2 from HUVECs is listed as “inhibited”.

(Values after paper PMC2790922 (Molecular pharmaceutics, 2009).)
